According to patent publication US11666589B2, “Pivarubicin and benzarubicin compositions” (Paradox Pharmaceuticals, Inc., priority 2020, dated 2023):
pIC50: −log10 of the molar value. “And” between values parts separate entries of the source, which are not always exact repeats. Equal values may be shown once. Read-outs that look alike come from different tables or passages of the source.

Assays:
[1] = Cardiotoxicity assessment (Bertazzoli Test), tumor-bearing mice; type: in vivo, female NSG mice; details: for hearts with Severity 0 / hearts with Severity 0.5 / hearts with Severity 1.0: 2 i.p. doses; for hearts with Total Score 0 / hearts with Total Score 0.5 / hearts with Total Score 1.0: severity×extension
Description: Drug-mediated cardiotoxicity was assessed in both non-tumor-bearing female NSG mice administered three doses (i.p. every two weeks) of the MTD of doxorubicin, pivarubicin or the equivalent volume of solvent only and in hearts excised from tumor-bearing mice treated as described in Results section. Body weights were monitored every three days. Two weeks after final dose, mice were sacrificed, and hearts were excised immediately. Intact ventricular myocardia were fixed for a minimum of 24 h in 10% formalin phosphate buffered to pH 7.0 and then carefully sectioned into 2 to 3-mm thick slices before being dehydrated in graded ethanol and cleared in xylene prior to embedding in paraffin at 58° C. Sections (4-μm thick) were mounted on glass slides, deparaffinized in xylene, and stained in the routine fashion with Mayer's hematoxylin and eosin. Slide labels were blinded to evaluator. Myocardial lesions were evaluated by routine light microscopy and scored with regard to the severity and extent of damage:
Degree of severity (S)—0, no evidence of histological changes; 1, sarcoplasmic microvacuolization and/or inclusions (interstitial or cellular edema); 2, as in 1 plus sarcoplasmic macrovacuolization or atrophia, necrosis, fibrosis, endocardial lesions, and thrombi.
Degree of extension (E)—0, no lesions; 0.5, less than 10 single altered myocytes on the whole-heart section; 1, scattered single altered myocytes; 2, scattered small groups of altered myocytes; 3, spread small groups of altered myocytes; 4, confluent groups of altered myocytes; 5, most of cells damaged.
Total cardiotoxicity score/animal=S×E and mean total score (MTS) for each treatment group was MTS=(S×E)/number of animals.
Given the limitation of doxorubicin in the treatment of tumors due to irreversible cardiotoxicity due to the total cumulative dose of drug, it was next determined whether pivarubicin produced evidence of cardiotoxic damage at the total dose of drug administered to NSG mice that produced tumor growth inhibition. Histological evidence of ventricular damage in hearts of drug- or vehicle-treated NSG mice were assessed using the Bertazzoli Test, originally designed to assess doxorubicin-induced cardiomyocyte damage. Analyses were performed on hearts from two independent experiments: 1) hearts that were excised at dosing endpoint from tumor-bearing NSG mice receiving 2 i.p. doses of pivarubicin at 16.5 mg/kg, doxorubicin at 1.4 mg/kg then 1.6 mg/kg and an equivalent volume of vehicle alone and 2) non-tumor-bearing female NSG mice receiving 3 i.p. doses of pivarubicin at 16.5 mg/kg, doxorubicin at 1.4 mg/kg then 1.6 mg/kg×2 and an equivalent volume of vehicle alone at 2-week intervals.
Non-tumor-bearing female NSG mice at 9 weeks old were treated with either 16.5 mg/kg pivarubicin (PIV), 1.4 mg/kg (1×) and 1.6 mg/kg (2×) doxorubicin and equivalent volumes of vehicle i.p. at 2-week intervals. Tumor-bearing female NSG mouse treatment was as described for the “Cardiotoxicity Assessment method” method. At endpoint, hearts were excised and prepared for histological analysis as described above. Severity and severity×extension (total score) are defined in Materials and Methods.

32D.3 cells = assay: Cell viability by trypan blue with or without rottlerin
Description: (§1) Rottlerin treatment of cells, cell viability analysis by MTT [28] and immunoblot identification of protein expression were performed and described previously.
FIGS. 4A-4D are charts and images from studies of pivarubicin cytotoxicity mediated through PKC-delta (PKCd) activation. For FIG. 4A, 32D.3 cells, suspended in RPMI-1640 medium/10% FCS/IL-3 at a density of 5×10^5 cells/ml, were treated with either DMSO (C) or 5 μM pivarubicin (PIV) for 4 h prior to harvesting, cell fractionation, and immunoblot analysis of PKCd as described previously. For FIG. 4B, 32D.3 cells were pretreated with 10 μM rottlerin for 2 h prior to exposure to 5 μM drug for 1 h at 37° C. Cells were pelleted and washed twice in large volumes of warm PBS, then resuspended in fresh, drug-free medium containing 10 μM rottlerin at 5×10^5 cells/ml and incubated at 37° C. for up to 72 h. At indicated times, aliquots of cells were withdrawn and stained with trypan blue. Viable cells were scored based on the exclusion of stain and gross morphological appearance. For the results shown in FIGS. 4C and 4D, 32D.3 cells were transfected with PKCd siRNA or scrambled siRNA as described in the Materials and Methods section under “Chemicals and Biologicals”. The cells were then assessed for pivarubicin cytotoxicity as for FIG. 4A. Each datum point represents the mean and standard error of at least three independent determinations, each consisting of 300-500 cells per count, when possible.

MDA-MB-231 cells = assay: MTT cytotoxicity, TNBC monolayer MDA-MB-231; type: cell-based, human; details: MDA-MB-231, 48 h
Description: as §1
Based upon the ability of pivarubicin to circumvent multiple mechanisms of resistance against doxorubicin, we then examined the efficacy of pivarubicin against TNBC in comparison to doxorubicin, using the following procedure, using two basal TNBC cell lines. MDA-MB-231 cells and SUM-159 cells were maintained under adherent monolayer growth conditions. Upon reaching 50% confluency, cells were treated for 48 h with the dose range of doxorubicin or pivarubicin as indicated in FIGS. 6A and 6B.
In the absence of specific receptor targets, the current treatment of metastatic TNBC relies on doxorubicin-based multidrug therapy, with only limited effectiveness. […] Once achieving a primary tumor volume of 150-190 mm^3, mice were randomized into three cohorts for treatment with the MTD of pivarubicin or doxorubicin, or the equivalent volume per body weight of vehicle.

[2] = without rottlerin, doxorubicin at IC50 concentration

Structure (SMILES)	hearts with Severity 0 [1]	hearts with Severity 0.5 [1]	hearts with Severity 1.0 [1]	hearts with Total Score 0 [1]	hearts with Total Score 0.5 [1]	hearts with Total Score 1.0 [1]	effect of rottlerin co-treatment on cytotoxicity (32D.3 cells; 10 μM rottlerin)	time to 50% cell kill (32D.3 cells; [2]) [h]	IC90 (MDA-MB-231 cells; Homo sapiens) [µM]	IC90 (MDA-MB-231 cells) [µM]	time to 50% cell kill (32D.3 cells; co-treatment with 10 μM rottlerin) [h]	pIC50 (MDA-MB-231 cells)	IC90 (MDA-MB-231 cells; read-out: IC90)
COc1cccc2c1C(=O)c1c(O)c3c(c(O)c1C2=O)C[C@@](O)(C(=O)CO)C[C@@H]3O[C@H]1C[C@H](N)[C@H](O)[C@H](C)O1 [Doxorubicin, reference compound]	7/9	0/9	2/9	8/9	1/9	0/9	does not alter	24	> 20	20			
COc1cccc2c1C(=O)c1c(O)c3c(c(O)c1C2=O)C[C@@](O)(C(=O)COC(=O)C(C)(C)C)C[C@@H]3O[C@H]1C[C@H](NCc2ccccc2)[C@H](O)[C@H](C)O1 [Pivarubicin, N-Benzyladriamycin-14-pivalate]	9/10	0/10	1/10	9/10	0/10	1/10		≤ 6			24	5.60	4.5 µM and 5.1 µM
